The term IC50 denotes the concentration at which inhibition is half-maximal. The term melting point denotes the temperature of the solid-liquid transition.

Our source for the IC50 and melting point values is patent US6465686B2, “Halogenated 2-amino-5,6 heptenoic acid derivatives useful as nitric oxide synthase inhibitors” (Pharmacia Corporation, priority 2000, dated 2002).

Series [1] has as its target T1, Human inducible NOS (hiNOS) (Homo sapiens, UniProt P35228).
T1 construct: made in house; host or cells: Sf9 insect cells (baculovirus vector)
Put plainly: Citrulline assay for nitric oxide synthase, hiNOS. The class given is biochemical. As to conditions: recombinant enzyme, conversion of L-[2,3-3H]-arginine to citrulline, 30 μM L-arginine. The source says: (§1) Citrulline Assay for Nitric Oxide Synthase
(§2) Nitric oxide synthase (NOS) activity can be measured by monitoring the conversion of L-[2,3-^3H]-arginine to L-[2,3-^3H]-citrulline (Bredt and Snyder, Proc. Natl. Acad. Sci. U.S.A., 87, 682-685, 1990 and Moore et al, J. Med. Chem., 39, 669-672, 1996). Human inducible NOS (hiNOS), human endothelial constitutive NOS (hecNOS) and human neuronal constitutive NOS (hncNOS) are each cloned from RNA extracted from human tissue. The cDNA for human inducible NOS (hiNOS) is isolated from a λcDNA library made from RNA extracted from a colon sample from a patient with ulcerative colitis. The cDNA for human endothelial constitutive NOS (hecNOS) is isolated from a λcDNA library made from RNA extracted from human umbilical vein endothelial cells (HUVEC) and the cDNA for human neuronal constitutive NOS (hncNOS) is isolated from a λcDNA library made from RNA extracted from human cerebellum obtained from a cadaver. The recombinant enzymes are expressed in Sf9 insect cells using a baculovirus vector (Rodi et al, in The Biology of Nitric Oxide, Pt. 4: Enzymology, Biochemistry and Immunology: Moncada, S., Feelisch, M., Busse, R., Higgs, E., Eds.; Portland Press Ltd.: London, 1995; pp 447-450). Enzyme activity is isolated from soluble cell extracts and partially purified by DEAE-Sepharose chromatography. To measure NOS activity, 10 μL of enzyme is added to 40 μL of 50 mM Tris (pH 7.6) in the presence or absence of test compounds and the reaction initiated by the addition of 50 μL of a reaction mixture containing 50 mM Tris (pH 7.6), 2.0 mg/mL bovine serum albumin, 2.0 mM DTT, 4.0 mM CaCl2, 20 μM FAD, 100 μM tetrahydrobiopterin, 0.4 mM NADPH and 60 μM L-arginine containing 0.9 μCi of L-[2,3-^3H]-arginine. The final concentration of L-arginine in the assay is 30 μM. For hecNOS or hncNOS, calmodulin is included at a final concentration of […]. Following incubation at 37° C. for 15 minutes, the reaction is terminated by addition of 400 μL of a suspension (1 part resin, 3 parts buffer) of Dowex 50W X-8 cation exchange resin in a stop buffer containing 10 mM EGTA, 100 mM HEPES, pH 5.5 and 1 mM L-citrulline. After mixing the resin is allowed to settle and L-[2,3-^3H]-Citrulline formation is determined by counting aliquots of the supernatant with a liquid scintillation counter. Results are reported in Table I as the IC50 values of compounds for hiNOS, hecNOS and hncNOS.

The target of series [2] is T2, human endothelial constitutive NOS (hecNOS) (Homo sapiens, UniProt P29474).
T2 construct: made in house; host or cells: Sf9 insect cells (baculovirus vector)
Put plainly: Citrulline assay for nitric oxide synthase, hecNOS. As to conditions: recombinant enzyme, conversion of L-[2,3-3H]-arginine to citrulline, 30 μM L-arginine, calmodulin included. The class given is biochemical.
Text: as §1, §2

Series [3] has as its target T3, human neuronal constitutive NOS (hncNOS) (Homo sapiens, UniProt P29475).
T3 construct: made in house; host or cells: Sf9 insect cells (baculovirus vector)
Put plainly: Citrulline assay for nitric oxide synthase, hncNOS. The class given is biochemical. The following applies: recombinant enzyme, conversion of L-[2,3-3H]-arginine to citrulline, 30 μM L-arginine, calmodulin included.
Text: as §1, §2

Counter-ions that a name gives are not always drawn.

With `CC(=N)NC/C(F)=C\CC[C@H](N)C(=O)O` [Example 1, (2S,5E)-2-amino-6-fluoro-7-[(1-iminoethyl)amino]-5-heptenoic acid, dihydrochloride, monohydrate], the half-inhibitory concentration (IC50) came out at 0.36 µM in series [1], 68 µM in series [2] and 3.6 µM in series [3].

For the compound `CC(=N)NCC(F)=CCC[C@H](N)C(=O)O` (mixture of isomers) [Example 2, (2S,5E/Z)-2-amino-6-fluoro-7-[(1-iminoethyl)amino]-5-heptenoic acid, dihydrochloride], the concentration for half-maximal inhibition (IC50) in series [1] worked out at 2.2 µM; in series [2] it was 195 µM; in series [3], 21 µM.

Turning to `CC(=N)NC/C(F)=C/CC[C@H](N)C(=O)O` [Example 3, (2S,5Z)-2-amino-6-fluoro-7-[(1-iminoethyl)amino]-5-heptenoic acid, dihydrochloride], the IC50 in series [1] was determined as 12 µM; in series [2] it was 303 µM; in series [3], 105 µM.

Turning to `CC(=NO)NC/C(F)=C\CC[C@H](N)C(=O)O` [Example 10, (2S,5E)-2-amino-6-fluoro-7-[(1-hydroximinoethyl)amino]-5-heptenoic acid], the melting point is 198 to 200 °C.

In the case of `CC(=N)NC/C(F)=C\CC[C@@H](N)C(=O)O` [Example 5, (2R,5E)-2-amino-6-fluoro-7-[(1-iminoethyl)amino]-5-heptenoic acid, dihydrochloride, monohydrate], the IC50 in series [1] is less than 5 µM; in series [2] it was 279 µM; in series [3], 29 µM.

Regarding `CC(=N)NC/C(F)=C/CC[C@H](N)C(=O)O` [Example 4, (2S,5Z)-2-amino-6-fluoro-7-[(1-iminoethyl)amino]-5-heptenoic acid, trihydrochloride, dihydrate], the figures for the half-maximal inhibitory concentration (IC50) in series [1], in series [2] and in series [3] were 8.6 µM, 112 µM and 65 µM, respectively.
